Assay results from publication PMC7317212 (Chemmedchem, 2020).

Legend:
mGAT1 [1] = target: T1, mGAT1 (Mus musculus, UniProt P31648); assay: MS Binding Assay with NO711 as native MS marker; details: for remaining activity at 100 µM: in presence of 100 μM compound, read-out: remaining specific NO711 binding (mGAT1)
T1 construct: expressed in transfected cells; host or cells: HEK293
Protocol: (§1) For compounds with pIC50 ([^3H]GABA uptake assay) or pK i (MS Binding Assays) values close to or above 5.0, these experiments were repeated twice and SEM have been calculated.
MS Binding Assays: The MS Binding Assays were performed with mGAT1 membrane preparations obtained from a stably mGAT1 expressing HEK293 cell line and NO711 as unlabeled marker in competitive binding experiments as previously described in detail.34 In short, test compounds were investigated at 7 concentrations in presence of 10 nM NO 711 in competition experiments. Non specific binding was defined as binding remaining in the presence of 100 mM GABA. Incubation was terminated by transfer of 200 μL per well onto a 96‐well filter plate (Acroprep, glass fibre, 1.0 μm, 350 μL, Pall, Dreieich, Germany) with a 12 channel pipette. After rapid vacuum‐filtration the filters were washed with ice cold 0.9 % NaCl (5×150 μL) and dried at 50 °C for 60 min. Afterwards, the filters were eluted with 100 μL methanol containing [^2H10]NO711 (1.4 nM) as internal standard per well into a deep‐well plate by application of vacuum. This step was repeated twice resulting in a total elution volume of 300 μL. Finally, a volume of 130 μL ammonium formate buffer (10 mM, pH 7.0) was added per well and the generated samples analyzed by LC‐ESI‐MS/MS using a API 3200 as described in detail previously.40

mGAT1 [2] = target: T1, mGAT1; assay: [^3H]GABA uptake assay, HEK293 cells expressing mGAT1; format: cell-based; details: HEK293; in presence of 100 μM compound
Protocol: as §1
(§2) [^3H]GABA uptake assays: The [^3H]GABA uptake assays were performed according to Kragler et al.33 Cells were grown in 150 cm^2 plates to a confluence of 70–90 % up to passage 25. After detachment the cells were centrifuged 5 min at 500×g, washed for three times in phosphate buffered saline and, finally, resuspended in Krebs buffer (2.5 mM CaCl2, 1.2 mM MgSO4, 1.2 mM KH2PO4, 4.7 mM KCl, 11 mM glucose, 25 mM Tris, 119 mM NaCl, pH 7.2). The uptake assays were performed with aliquots of the resulting cell suspension (about 100000–200000 cells per well) in a total volume of 250 μl in 96 well 2.2 mL deep well plates. The cells were equilibrated for 25 min in Krebs buffer in the presence of the test compound at 37 °C in a gently shaking water bath. […] After addition of 25 μl of a solution containing [^3H]GABA (2.22 TBq/mmol, ARC, St Louis, MO, USA) and unlabeled GABA in Krebs (final concentration 8 nM [^3H]GABA and 32 nM unlabeled GABA for mGAT1, mGAT3, mGAT4 and 20 nM [^3H]GABA and 20 nM unlabeled GABA for mGAT2) the cells were incubated for further 4 min (mGAT1, mGAT3, mGAT4) or 10 minutes (mGAT2), respectively. The incubation was stopped by filtration through Sartorius MGC micro glass fiber filters pre‐soaked for 1 h in 0.9 % NaCl by means of a Brandell MWXR‐96TI cell harvester (Brandell, Gaithersburg, MD, USA) under reduced pressure. The filters were rinsed two times with cold 0.9 % NaCl and subsequently transferred to 96 well sample plates (Perkin Elmer LAS, Boston, MA, USA). After addition of 200 μl Rotiszint Eco Plus (Roth, Karlsruhe, Germany) per well the radioactivity was determined in a microbeta liquid scintillation counter (Perkin Elmer LAS, Boston, MA, USA). Non‐specific uptake was determined in presence of 10 mM GABA for mGAT1, mGAT3 and mGAT4 or 100 mM GABA for mGAT2, respectively. The results are expressed as means±S.E.M. of at least three separate experiments, each carried out in triplicate.

mGAT2 = target: T2, mGAT2 (Mus musculus, UniProt P31651); assay: [^3H]GABA uptake assay, HEK293 cells expressing mGAT2; format: cell-based; details: HEK293; in presence of 100 μM compound
T2 construct: expressed in transfected cells; host or cells: HEK293
T2 sequence (P31651 1-614): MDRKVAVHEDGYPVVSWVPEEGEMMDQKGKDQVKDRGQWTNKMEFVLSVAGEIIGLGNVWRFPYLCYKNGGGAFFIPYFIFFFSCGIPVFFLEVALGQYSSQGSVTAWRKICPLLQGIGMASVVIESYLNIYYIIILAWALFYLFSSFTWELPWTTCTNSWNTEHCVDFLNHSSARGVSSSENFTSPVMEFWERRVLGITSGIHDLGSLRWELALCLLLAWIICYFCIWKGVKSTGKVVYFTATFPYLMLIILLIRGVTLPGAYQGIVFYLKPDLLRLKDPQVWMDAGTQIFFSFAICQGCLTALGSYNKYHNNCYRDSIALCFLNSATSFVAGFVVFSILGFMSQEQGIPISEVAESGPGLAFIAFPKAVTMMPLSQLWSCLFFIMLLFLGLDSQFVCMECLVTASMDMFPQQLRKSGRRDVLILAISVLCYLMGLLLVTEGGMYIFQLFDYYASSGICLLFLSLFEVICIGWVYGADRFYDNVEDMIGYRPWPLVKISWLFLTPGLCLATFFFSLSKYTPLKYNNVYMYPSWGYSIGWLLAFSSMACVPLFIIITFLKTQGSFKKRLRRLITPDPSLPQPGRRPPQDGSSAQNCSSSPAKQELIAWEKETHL
Protocol: as §1, §2

mGAT3 = target: T3, mGAT3 (Mus musculus, UniProt P31649); assay: [^3H]GABA uptake assay, HEK293 cells expressing mGAT3; format: cell-based; details: for remaining activity at 100 µM: HEK293, in presence of 100 μM compound; for IC50: [^3H]GABA uptake, pIC50±SEM
T3 construct: expressed in transfected cells; host or cells: HEK293
T3 sequence (P31649 1-602): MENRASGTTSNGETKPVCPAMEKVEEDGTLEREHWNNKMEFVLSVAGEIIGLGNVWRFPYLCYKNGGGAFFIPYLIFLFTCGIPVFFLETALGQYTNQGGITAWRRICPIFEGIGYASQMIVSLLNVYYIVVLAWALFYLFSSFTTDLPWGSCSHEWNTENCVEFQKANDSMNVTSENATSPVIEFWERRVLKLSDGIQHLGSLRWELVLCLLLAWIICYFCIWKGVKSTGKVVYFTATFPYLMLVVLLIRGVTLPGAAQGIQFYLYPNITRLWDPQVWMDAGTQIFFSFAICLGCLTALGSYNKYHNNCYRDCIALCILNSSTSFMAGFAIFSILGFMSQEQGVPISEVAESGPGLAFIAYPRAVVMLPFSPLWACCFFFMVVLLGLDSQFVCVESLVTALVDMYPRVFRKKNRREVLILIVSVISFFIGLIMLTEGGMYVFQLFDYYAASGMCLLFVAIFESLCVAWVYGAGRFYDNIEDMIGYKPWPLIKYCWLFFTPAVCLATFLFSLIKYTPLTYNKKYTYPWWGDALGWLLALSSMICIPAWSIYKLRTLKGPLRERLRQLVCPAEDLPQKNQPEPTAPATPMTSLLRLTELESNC
Protocol: as §1, §2

mGAT4 = target: T4, mGAT4 (Mus musculus, UniProt P31650); assay: [^3H]GABA uptake assay, HEK293 cells expressing mGAT4; format: cell-based; details: for remaining activity at 100 µM: HEK293, in presence of 100 μM compound; for IC50: [^3H]GABA uptake, pIC50±SEM
T4 construct: expressed in transfected cells; host or cells: HEK293
T4 sequence (P31650 1-627): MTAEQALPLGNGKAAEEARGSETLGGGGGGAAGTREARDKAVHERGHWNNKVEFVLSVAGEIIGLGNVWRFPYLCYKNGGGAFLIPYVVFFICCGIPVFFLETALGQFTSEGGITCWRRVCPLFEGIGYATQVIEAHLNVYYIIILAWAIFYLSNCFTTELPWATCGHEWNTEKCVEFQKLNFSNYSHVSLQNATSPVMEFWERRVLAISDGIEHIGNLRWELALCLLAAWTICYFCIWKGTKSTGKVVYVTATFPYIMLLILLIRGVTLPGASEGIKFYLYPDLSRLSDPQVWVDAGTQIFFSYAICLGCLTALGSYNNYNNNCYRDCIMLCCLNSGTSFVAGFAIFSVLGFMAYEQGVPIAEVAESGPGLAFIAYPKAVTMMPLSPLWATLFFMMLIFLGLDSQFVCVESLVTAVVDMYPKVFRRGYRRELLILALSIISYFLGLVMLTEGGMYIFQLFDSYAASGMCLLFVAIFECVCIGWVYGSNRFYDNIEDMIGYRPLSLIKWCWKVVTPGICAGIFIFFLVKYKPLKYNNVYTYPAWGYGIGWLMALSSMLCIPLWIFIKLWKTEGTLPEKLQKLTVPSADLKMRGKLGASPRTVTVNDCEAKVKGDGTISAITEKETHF
Protocol: as §1, §2

Ki (mGAT1 [1]; MS Binding Assay, NO711 marker, pKi±SEM, read-out: pK i mGAT1 (converted)) | remaining activity at 100 µM (mGAT1 [2]) | remaining activity at 100 µM (mGAT2) | remaining activity at 100 µM (mGAT3) | remaining activity at 100 µM (mGAT4) | remaining activity at 100 µM (mGAT1 [1]) | IC50 (mGAT4) | IC50 (mGAT3) | SMILES
32.4 µM | 69.5% | 62.5% | 80.7% | 92% | – | – | – | COc1ccc(C(O)(CCCN2CCCC(C(=O)O)C2)c2ccc(OC)cc2)cc1 (racemic) [5 l, rac ‐1‐[4‐Hydroxy‐4,4‐bis(4‐methoxyphenyl)butyl]piperidine‐3‐carboxylic acid]
– | 90.7% | 72.6% | 68.3% | 76.1% | 92.7% | – | – | COCc1ccc(C(OCCN2CCCC(C(=O)O)C2)(c2ccc(COC)cc2)c2ccc(COC)cc2)cc1 (racemic) [5 i, rac‐ 1‐(2‐{Tris[4‐(methoxymethyl)phenyl]methoxy}ethyl)piperidine‐3‐carboxylic acid]
– | 70.5% | 55.2% | 52.2% | – | 74.1% | 17 µM | – | COCc1ccc(C(OCCN2CCCC(C(=O)O)C2)(c2ccc(COC)cc2)c2ccc(OC)cc2)cc1 (racemic) [5 h, rac‐ 1‐(2‐{Bis[4‐(methoxymethyl)phenyl][4‐methoxyphenyl]methoxy}‐ethyl)piperidine‐3‐carboxylic acid]
– | 80.7% | 77% | 61.1% | – | 77% | 45.7 µM | – | COc1ccc(C(OCCN2CCCC(C(=O)O)C2)(c2ccc(CNC(C)(C)C(=O)O)cc2)c2ccc(OC)cc2)cc1 (racemic) [5 q, rac ‐1‐{2‐[(4‐{[(2‐Carboxypropan‐2‐yl)amino]methyl}phenyl)bis(4‐methoxyphenyl)methoxy]ethyl}piperidine‐3‐carboxylic acid]
– | 48.5% | 51.5% | – | – | 86.5% | 74.1 µM | 46.8 µM | COc1ccc(C(OCCN2CCCC(C(=O)O)C2)(c2ccc(CNCCCC(=O)O)cc2)c2ccc(OC)cc2)cc1 (racemic) [5 s, rac ‐1‐{2‐[(4‐{[(3‐Carboxypropyl)amino]methyl}phenyl)bis(4‐methoxy‐phenyl)methoxy]ethyl}piperidine‐3‐carboxylic acid]
– | 50.4% | 49.3% | – | – | 75.3% | 58.9 µM | 35.5 µM | CCOC(=O)C1CCCN(CCOC(c2ccc(CO)cc2)(c2ccc(OC)cc2)c2ccc(OC)cc2)C1 (racemic) [12 m, rac ‐Ethyl 1‐(2‐{[4‐(hydroxymethyl)phenyl]bis[4‐methoxyphenyl]methoxy}‐ethyl)piperidine‐3‐carboxylate]
– | 89.1% | 92.6% | 64.1% | 78.2% | 90.8% | – | – | CCOC(=O)C1CCCN(CCOC(C(=O)OC)(c2ccc(OC)cc2)c2ccc(OC)cc2)C1 (racemic) [12 k, rac‐ Ethyl 1‐{2‐[2‐methoxy‐1,1‐bis(4‐methoxyphenyl)‐2‐oxoethoxy]ethyl}‐piperidine‐3‐carboxylate]
– | 57.8% | 56.1% | – | 60% | 89.3% | – | 79.4 µM | CCOC(=O)C1CCCN(CCOC(c2ccc(OC)cc2)(c2ccc(OC)cc2)c2ccc(C(N)=O)cc2)C1 (racemic) [12 j, rac‐ Ethyl 1‐{2‐[(4‐carbamoylphenyl)bis(4‐methoxyphenyl)methoxy]‐ethyl}piperidine‐3‐carboxylate]
– | 96.5% | 85.2% | – | – | 71.4% | 13.8 µM | 57.5 µM | COc1ccc(C(OCCN2CCCC(C(=O)O)C2)(c2ccc(OC)cc2)c2ccc(C(=O)O)cc2)cc1 (racemic) [5 e, rac ‐1‐{2‐[(4‐Carboxyphenyl)bis(4‐methoxyphenyl)methoxy]ethyl}piper‐idine‐3‐carboxylic acid]
– | 94.4% | 69.5% | 89.1% | 56.3% | 82.3% | – | – | COc1ccc(C(OCCN2CCCC(C(=O)O)C2)(c2ccc(CNCCC(=O)O)cc2)c2ccc(OC)cc2)cc1 (racemic) [5 o, rac‐ 1‐{2‐[(4‐{[(2‐Carboxyethyl)amino]methyl}phenyl)bis(4‐methoxy‐phenyl)methoxy]ethyl}piperidine‐3‐carboxylic acid]
